The numbers were not newly measured in patent publication US20100022590A1, “Novel compounds” (BIOVITRUM AB (publ.), priority 2008, published 2010), which cites them from elsewhere.

Molecules are shown by their SMILES.

In data set [1] the test system is intraocular pressure (IOP). As to conditions: orally administered, patients with ocular hypertension.
Data set [2] concerns intraocular pressure (IOP). As to conditions: oral administration, healthy volunteers.

Consider `CC1(C)[C@@H](OC(=O)CCC(=O)O)CC[C@]2(C)[C@H]3C(=O)C=C4[C@@H]5C[C@@](C)(C(=O)O)CC[C@]5(C)CC[C@@]4(C)[C@]3(C)CC[C@@H]12` [carbenoxolone], for which, in data set [1], the IOP reduction is reported as 10%. The “reduction of intraocular pressure (IOP)” value in data set [2] is 20%.
